ChEMBL document CHEMBL3272271, “Folate antagonists. 13. 2,4-Diamino-6-](alpha,alpha,alpha-trifluoro-m-tolyl)thio]quinazoline and related 2,4-diamino-6-[(phenyl- and naphthyl)thio]quinazolines, a unique class of antimetabolites with extraordinary antimalarial and antibacterial effects” (J Med Chem, 1978)
In brackets after ≈: the same amount, converted by molar mass. Activity calls are given as the source filed them. The rule behind the calls is not given here.

Tests used:
[1] = test system: Plasmodium berghei; assay: Antimalarial activity against trophozoite-induced Plasmodium berghei infected in mouse assessed as daily dose required to suppression of 90% parasite infection administered with diet for 6 days; format: functional
[2] = test system: Plasmodium berghei; assay: Antimalarial activity against Plasmodium berghei infected in mouse assessed as disease cure from parasite infection at 160 mg/kg, sc administered 72 hrs after infection; format: functional, organism-based; set-up: dose 160 mg/kg
[3] = test system: Staphylococcus aureus; assay: Antibacterial activity against drug-resistant Staphylococcus aureus S18713 by gradient plate test; format: functional
[4] = test system: Plasmodium gallinaceum; assay: Antimalarial activity against trophozoite-induced Plasmodium gallinaceum infected in white leghorn chicken assessed as increase in mean survival days of host at 80 mg/kg, sc administered 72 hrs after infection relative to control; format: functional; settings: route subcutaneous
[5] = test system: Plasmodium berghei; assay: Ratio of quinine hydrochloride SD90 to compound SD90 for trophozoite-induced Plasmodium berghei infected in mouse assessed as daily dose required to suppression of 90% parasite infection administered with diet for 6 days; format: functional
[6] = test system: Plasmodium gallinaceum; assay: Antimalarial activity against trophozoite-induced Plasmodium gallinaceum infected in white leghorn chicken assessed as increase in mean survival days of host at 40 mg/kg, sc administered 72 hrs after infection relative to control; format: functional; settings: route subcutaneous
[7] = test system: Plasmodium gallinaceum; assay: Antimalarial activity against trophozoite-induced Plasmodium gallinaceum infected in white leghorn chicken assessed as increase in mean survival days of host at 10 mg/kg, sc administered 72 hrs after infection relative to control; format: functional; settings: route subcutaneous
[8] = test system: Staphylococcus aureus; assay: Antibacterial activity against Staphylococcus aureus UC-96 by gradient plate test; format: functional
[9] = test system: Shigella sonnei; assay: Antibacterial activity against Shigella sonnei C-10 by gradient plate test; format: functional
[10] = test system: Gallus gallus; assay: Toxicity in sporozoite-induced Plasmodium gallinaceum infected white leghorn chicken assessed as mortality at 160 mg/kg, sc administered 72 hrs after infection measured up to 6 days; format: organism-based; set-up: dose 160 mg/kg, route subcutaneous; settings: in vivo
[11] = test system: Plasmodium gallinaceum; assay: Antimalarial activity against sporozoite-induced Plasmodium gallinaceum infected in white leghorn chicken assessed as increase in mean survival days of host at 5 mg/kg, sc administered 72 hrs after infection relative to control; format: functional; settings: route subcutaneous
[12] = test system: Gallus gallus; assay: Toxicity in trophozoite-induced Plasmodium gallinaceum infected white leghorn chicken assessed as mortality at 320 mg/kg, sc administered 72 hrs after infection measured after 48 hrs; format: organism-based; set-up: dose 320 mg/kg, route subcutaneous; settings: in vivo
[13] = test system: Plasmodium gallinaceum; assay: Antimalarial activity against trophozoite-induced Plasmodium gallinaceum infected in white leghorn chicken assessed as increase in mean survival days of host at 20 mg/kg, sc administered 72 hrs after infection relative to control; format: functional; settings: route subcutaneous
[14] = test system: Plasmodium gallinaceum; assay: Antimalarial activity against sporozoite-induced Plasmodium gallinaceum infected in white leghorn chicken assessed as disease cure from parasite infection at 320 mg/kg, sc administered 72 hrs after infection; format: functional, organism-based; set-up: dose 320 mg/kg
[15] = test system: Plasmodium gallinaceum; assay: Antimalarial activity against trophozoite-induced Plasmodium gallinaceum infected in white leghorn chicken assessed as increase in mean survival days of host at 160 mg/kg, sc administered 72 hrs after infection relative to control; format: functional; settings: route subcutaneous
[16] = test system: Enterococcus faecalis; assay: Antibacterial activity against Streptococcus faecalis MGH-2 by gradient plate test; format: functional
[17] = test system: Plasmodium gallinaceum; assay: Antimalarial activity against trophozoite-induced Plasmodium gallinaceum infected in white leghorn chicken assessed as increase in mean survival days of host at 5 mg/kg, sc administered 72 hrs after infection relative to control; format: functional; settings: route subcutaneous
[18] = test system: Plasmodium gallinaceum; assay: Antimalarial activity against sporozoite-induced Plasmodium gallinaceum infected in white leghorn chicken assessed as increase in mean survival days of host at 80 mg/kg, sc administered 72 hrs after infection relative to control; format: functional; settings: route subcutaneous
[19] = test system: Plasmodium berghei; assay: Antimalarial activity against Plasmodium berghei infected in mouse assessed as disease cure from parasite infection at 320 mg/kg, sc administered 72 hrs after infection; format: functional, organism-based; set-up: dose 320 mg/kg
[20] = test system: Plasmodium gallinaceum; assay: Antimalarial activity against sporozoite-induced Plasmodium gallinaceum infected in white leghorn chicken assessed as disease cure from parasite infection at 40 mg/kg, sc administered 72 hrs after infection; format: functional, organism-based; set-up: dose 40 mg/kg
[21] = test system: Plasmodium gallinaceum; assay: Antimalarial activity against sporozoite-induced Plasmodium gallinaceum infected in white leghorn chicken assessed as disease cure from parasite infection at 20 mg/kg, sc administered 72 hrs after infection; format: functional, organism-based; set-up: dose 20 mg/kg
[22] = test system: Plasmodium berghei; assay: Antimalarial activity against Plasmodium berghei infected in mouse assessed as increase in mean survival days of host at 20 mg/kg, sc administered 72 hrs after infection relative to control; format: functional; settings: route subcutaneous
[23] = test system: Plasmodium gallinaceum; assay: Antimalarial activity against sporozoite-induced Plasmodium gallinaceum infected in white leghorn chicken assessed as increase in mean survival days of host at 20 mg/kg, sc administered 72 hrs after infection relative to control; format: functional; settings: route subcutaneous
[24] = test system: Pseudomonas aeruginosa; assay: Antibacterial activity against Pseudomonas aeruginosa 28 by gradient plate test; format: functional
[25] = test system: Mus musculus; assay: Toxicity in Plasmodium berghei infected mouse assessed as mortality at 640 mg/kg, sc administered 72 hrs after infection measured after 2 to 5 days; format: organism-based; set-up: dose 640 mg/kg, route subcutaneous; settings: in vivo
[26] = test system: Plasmodium gallinaceum; assay: Antimalarial activity against trophozoite-induced Plasmodium gallinaceum infected in white leghorn chicken assessed as increase in mean survival days of host at 2.5 mg/kg, sc administered 72 hrs after infection relative to control; format: functional; settings: route subcutaneous
[27] = test system: Plasmodium gallinaceum; assay: Antimalarial activity against trophozoite-induced Plasmodium gallinaceum infected in white leghorn chicken assessed as disease cure from parasite infection at 160 mg/kg, sc administered 72 hrs after infection; format: functional, organism-based; set-up: dose 160 mg/kg
[28] = test system: Gallus gallus; assay: Toxicity in sporozoite-induced Plasmodium gallinaceum infected white leghorn chicken assessed as mortality at 320 mg/kg, sc administered 72 hrs after infection measured up to 6 days; format: organism-based; set-up: dose 320 mg/kg, route subcutaneous; settings: in vivo
[29] = test system: Plasmodium gallinaceum; assay: Antimalarial activity against trophozoite-induced Plasmodium gallinaceum infected in white leghorn chicken assessed as increase in mean survival days of host at 1.25 mg/kg, sc administered 72 hrs after infection relative to control; format: functional; settings: route subcutaneous
[30] = test system: Plasmodium gallinaceum; assay: Antimalarial activity against trophozoite-induced Plasmodium gallinaceum infected in white leghorn chicken assessed as increase in mean survival days of host at 0.63 mg/kg, sc administered 72 hrs after infection relative to control; format: functional; settings: route subcutaneous
[31] = test system: Plasmodium gallinaceum; assay: Antimalarial activity against sporozoite-induced Plasmodium gallinaceum infected in white leghorn chicken assessed as disease cure from parasite infection at 160 mg/kg, sc administered 72 hrs after infection; format: functional, organism-based; set-up: dose 160 mg/kg
[32] = test system: Gallus gallus; assay: Toxicity in sporozoite-induced Plasmodium gallinaceum infected white leghorn chicken assessed as mortality at 80 mg/kg, sc administered 72 hrs after infection measured up to 6 days; format: organism-based; set-up: dose 80 mg/kg, route subcutaneous; settings: in vivo
[33] = test system: Plasmodium gallinaceum; assay: Antimalarial activity against sporozoite-induced Plasmodium gallinaceum infected in white leghorn chicken assessed as increase in mean survival days of host at 40 mg/kg, sc administered 72 hrs after infection relative to control; format: functional; settings: route subcutaneous
[34] = test system: Plasmodium berghei; assay: Antimalarial activity against Plasmodium berghei infected in mouse assessed as disease cure from parasite infection at 640 mg/kg, sc administered 72 hrs after infection; format: functional, organism-based; set-up: dose 640 mg/kg
[35] = test system: Plasmodium berghei; assay: Antimalarial activity against Plasmodium berghei infected in mouse assessed as increase in mean survival days of host at 10 mg/kg, sc administered 72 hrs after infection relative to control; format: functional; settings: route subcutaneous
[36] = test system: Plasmodium berghei; assay: Antimalarial activity against Plasmodium berghei infected in mouse assessed as increase in mean survival days of host at 40 mg/kg, sc administered 72 hrs after infection relative to control; format: functional; settings: route subcutaneous
[37] = test system: Plasmodium berghei; assay: Antimalarial activity against Plasmodium berghei infected in mouse assessed as increase in mean survival days of host at 160 mg/kg, sc administered 72 hrs after infection relative to control; format: functional; settings: route subcutaneous
[38] = test system: Escherichia coli; assay: Antibacterial activity against Escherichia coli Vogel by gradient plate test; format: functional
[39] = test system: Plasmodium gallinaceum; assay: Antimalarial activity against sporozoite-induced Plasmodium gallinaceum infected in white leghorn chicken assessed as disease cure from parasite infection at 80 mg/kg, sc administered 72 hrs after infection; format: functional, organism-based; set-up: dose 80 mg/kg
[40] = test system: Plasmodium berghei; assay: Antimalarial activity against Plasmodium berghei infected in mouse assessed as increase in mean survival days of host at 80 mg/kg, sc administered 72 hrs after infection relative to control; format: functional; settings: route subcutaneous
[41] = test system: Plasmodium gallinaceum; assay: Antimalarial activity against sporozoite-induced Plasmodium gallinaceum infected in white leghorn chicken assessed as increase in mean survival days of host at 10 mg/kg, sc administered 72 hrs after infection relative to control; format: functional; settings: route subcutaneous

Structure (SMILES): Cc1cccc(Sc2ccc3nc(N)nc(N)c3c2)c1
- SD90 [1]: 6.2 mg/kg/day
- Activity [2]: Active
- MIC [3]: < 0.25 µg/mL
- MST [4]: 7.8 days
- Ratio [5]: 12
- MST [6]: 6.4 days
- MST [7]: 6 days
- MIC [8]: < 0.25 µg/mL
- MIC [9]: 1.5 µg/mL (≈ 5.31 µM)
- Activity [10]: Toxic
- MST [11]: 0.3 days
- Activity [12]: Toxic
- MST [13]: 6.2 days
- Activity [14]: Active
- MST [15]: 10.7 days
- MIC [16]: < 0.25 µg/mL
- MST [17]: 0 days
- MST [18]: 4.7 days
- Activity [19]: Active
- Activity [20]: Active
- Activity [21]: Active
- MST [22]: 2.3 days
- MST [23]: 3.8 days
- MIC [24]: > 25 µg/mL
- Activity [25]: Toxic
- MST [26]: 0 days
- Activity [27]: Active
- Activity [28]: Toxic
- MST [29]: 0 days
- MST [30]: 0 days
- Activity [31]: Active
- Activity [32]: Toxic
- MST [33]: 1.7 days
- Activity [34]: Active
- MST [35]: 2.4 days
- MST [36]: 6.7 days
- MST [37]: 12.7 days
- MIC [38]: < 0.25 µg/mL
- Activity [39]: Active
- MST [40]: 7.7 days
- MST [41]: 1.8 days
